According to US20210353721A1, “METHODS AND COMPOSITIONS RELATING TO INHIBITING CARDIOVASCULAR CALCIFICATION VIA ANNEXIN A1” (THE BRIGHAM AND WOMEN'S HOSPITAL, INC., priority 2018, published 2021):

Tests used:
[1] = molecular target: dynamin-related protein 1 (DRP1) (Homo sapiens, UniProt O00429); conditions: OM; cited from earlier work
[2] = system: ANXA1 loading on EVs; experiment: ANXA1 loading on EVs derived from SMCs treated with mdivi-1 (western blot); assay type: cell-based; conditions: human SMCs in OM, 14 days
Description: Primary Cell Culture. Primary human coronary artery SMCs were obtained from Promocell (Heidelberg, Germany) and expanded in SMC Growth Medium 2 (Promocell) supplemented with epidermal growth factor (0.5 ng/mL), insulin (5 μg/mL) basic fibroblast growth factor- B (2 ng/mL), and 5% fetal bovine serum. Primary human VICs were obtained from human aortic valve tissue using collagenase digestion (28, 30). Tissue-derived SMCs were confirmed as alpha smooth muscle actin-positive by FACS (30). Tissue-derived VICs were confirmed as vimentin positive by immunohistochemistry (28). Cells were cultured at 37° C. (5% CO2, 90% humidity) and used between passages 1 and 5. […] Tissue non-specific alkaline phosphatase (TNAP) activity was analyzed after 14 days in culture using whole cell lysates and the TNAP enzyme activity assay (BioVision, Inc., Milpitas, Calif.), according to the manufacturer's protocol. Calcification was analyzed in cells after 21 days in culture by incubating culture wells with OsteoSense680 (1:100), near-infrared based bisphosphonate calcium tracer, for 24 hours at 37° C. […]
RNA and Protein Analysis. […] ANXA1 EVs surface localization was assessed by isolating human SMC and VIC EVs. […]

[3] = molecular target: T1, human ANXA1 (Homo sapiens, UniProt P04083); experiment: Vesicle tethering assay (turbidity of extrusion generated phosphatidylserine vesicles); assay type: biochemical
T1 construct: purchased R&D Systems
T1 sequence (P04083 1-346): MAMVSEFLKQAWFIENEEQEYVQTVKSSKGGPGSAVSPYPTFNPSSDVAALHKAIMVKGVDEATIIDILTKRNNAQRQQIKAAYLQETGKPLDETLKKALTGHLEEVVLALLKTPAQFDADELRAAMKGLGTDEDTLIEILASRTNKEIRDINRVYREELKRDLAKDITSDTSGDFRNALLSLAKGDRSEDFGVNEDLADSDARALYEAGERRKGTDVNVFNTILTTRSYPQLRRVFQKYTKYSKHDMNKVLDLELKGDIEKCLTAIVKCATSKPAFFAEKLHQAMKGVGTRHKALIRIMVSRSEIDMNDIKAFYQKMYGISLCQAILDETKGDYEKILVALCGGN
Description: Vesicle Tethering Assay. Vesicle tethering was assessed by using a previously reported protocol (19) with modifications to adjust to a 96-well plate reader format. Large unilaminar vesicles of ˜100 nm in diameter were generated by filter extrusion. Briefly, 2.5 mg of phosphatidylserine (Avanti Polar Lipids) was solubilized in 1 mL of buffer containing: 10 mmol/L Hepes (Sigma, St. Louis, Mo.), 100 mmol/L NaCl (Sigma), 100 μmon ethylenediaminetetraacetic acid (Boston BioProducts, Ashland, Mass.), pH 6. The lipid mixture was run through an extruder containing 0.1 μm polycarbonate membranes (Avanti Polar Lipids) ten times, during which point the lipid mixture went from cloudy to clear in appearance. Vesicles were assessed for correct size and abundance prior to use by NanoSight nanoparticle tracking analysis. […] 27 jd of extrusion generated vesicles were added to each well and vesicle aggregation was measured at wavelength 350 on a SpectraMax M5 96-well plate reader (Molecular Devices, San Jose, Calif.). For calcium chelation, 0.48 mmol/L ethylenediaminetetraacetic acid was incubated with 1 μg human ANXA1 protein for five minutes at room temperature prior to adding the extrusion generated vesicles, after which the reaction was carried out for 20 minutes and then aggregation was determined on a plate reader. […]

[4] = molecular target: ANXA1 on human VIC-derived EVs (Homo sapiens, UniProt P04083); conditions: 0.48 mmol/L EDTA in PBS, 30 minutes at 37° C.
Description: (§1) ANXA1 EVs surface localization was assessed by isolating human SMC and VIC EVs. 10 mL of conditioned media was centrifuged at 100,000 g for 40 minutes, and the resulting EVs pellet was resuspended in PBS or PBS containing 0.48 mmol/L EDTA and incubated for 30 minutes at 37° C. EVs were pelleted a second time at 100,000 g for 40 minutes. The supernatant was collected, and the pellet was resuspended in 100 μl PBS. Samples were incubated with 6×-loading buffer (Boston Bioproducts) and boiled for 10 minutes, prior to analysis by western blot. ANXA1 released into the supernatant was assessed as being on the surface of EVs.

[5] = molecular target: ANXA1 on human SMC-derived EVs (Homo sapiens, UniProt P04083); conditions: 0.48 mmol/L EDTA in PBS, 30 minutes at 37° C.
Description: as §1

[6] = Annexin vesicle binding (confocal, swelling generated phosphatidylserine vesicles); conditions: 2 μg ANXA1-GFP, 1 mmol/L CaCl2, five minutes
Description: Annexin Vesicle Binding. Giant unilamellar vesicles were generated using a previously described protocol (50) with some modifications. Briefly, for the confocal-based ANXA1 vesicle binding assay, 12 mm diameter cover glass circles were coated with 5% polyvinyl alcohol (Millipore, Burlington, Mass.) in water and left to dry overnight. Dried slides were then coated with 20 μl of 10 mg/mL phosphatidylserine (Avanti Polar Lipids, Alabaster, Ala.) in chloroform containing 0 1% DiR′; DiIC18(7) 1,1′-Dioctadecyl-3,3,3′,3′-Tetramethylindotricarbocyanine Iodide) (Fisher Scientific) and dried under vacuum. 1 mL of tris buffer (pH 6) was added to cover the coated cover glass circle in a 24-well plate, and giant unilaminar vesicles were formed by swelling at room temperature for 1 hour. Vesicles were detached from the cover glass by gently tapping the plate directly beneath the slide. ANXA1 tagged green fluorescent protein (ANXA1-GFP) was obtained by transfecting HEK-293 cells (ATCC, Manassas, Va.) with human ANXA1-GFP plasmid (OriGene, Rockville, Md., #RG201569). […] GFP laser settings were adjusted such that no GFP signal was detected in samples without ANXA1-GFP added.

Sequence of dynamin-related protein 1 (DRP1) (O00429 whole entry): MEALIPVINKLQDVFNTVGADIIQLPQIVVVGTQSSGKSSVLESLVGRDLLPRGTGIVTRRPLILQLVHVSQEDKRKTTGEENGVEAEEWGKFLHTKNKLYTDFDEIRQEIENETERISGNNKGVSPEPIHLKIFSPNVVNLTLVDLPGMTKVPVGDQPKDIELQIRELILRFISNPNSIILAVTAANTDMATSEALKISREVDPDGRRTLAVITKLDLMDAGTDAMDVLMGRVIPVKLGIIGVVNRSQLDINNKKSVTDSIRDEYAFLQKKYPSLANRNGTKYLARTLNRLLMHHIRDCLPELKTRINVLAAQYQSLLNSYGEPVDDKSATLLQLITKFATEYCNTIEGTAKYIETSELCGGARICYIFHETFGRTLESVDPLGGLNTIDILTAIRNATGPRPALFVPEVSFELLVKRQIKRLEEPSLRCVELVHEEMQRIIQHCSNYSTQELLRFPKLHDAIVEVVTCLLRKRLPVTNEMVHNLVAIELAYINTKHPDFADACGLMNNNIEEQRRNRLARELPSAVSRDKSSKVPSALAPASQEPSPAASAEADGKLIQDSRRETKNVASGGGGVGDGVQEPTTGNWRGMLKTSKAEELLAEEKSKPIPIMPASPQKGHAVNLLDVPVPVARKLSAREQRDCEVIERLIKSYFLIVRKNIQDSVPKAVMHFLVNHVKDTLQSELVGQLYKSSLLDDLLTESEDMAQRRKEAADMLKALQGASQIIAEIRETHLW

COc1cc(-n2c(S)nc3ccccc3c2=O)c(Cl)cc1Cl [mdivi-1]
SMC and VIC calcification [1]: suppressed | intracellular calcium storage [1]: increased | mitochondrial fragmentation [1]: reduced | increased ANXA1 loading on EVs in OM [2]: suppressed

O=C(O)CN(CCN(CC(=O)O)CC(=O)O)CC(=O)O [EDTA, ethylenediaminetetraacetic acid]
ANXA1-mediated vesicle aggregation ([3]; 0.48 mmol/L EDTA, 1 μg human ANXA1 protein, 20 minutes): attenuated | ANXA1 release from EVs [4]: increased | ANXA1 release from EVs [5]: increased

B1: GFP-tagged ANXA1: green fluorescent protein tagged human ANXA1 immunopurified from transfected HEK-293 cells (protein)
chain: T1 sequence (P04083 1-346)
modifications: left off: large carriers
notes: green fluorescent protein tagged human ANXA1 immunopurified from transfected HEK-293 cells
ANXA1 localization on tethered vesicles [6]: enriched ANXA1 at tethered vesicle membrane contact sites

B2: human ANXA1 protein: recombinant human ANXA1 (R&D Systems) (protein)
chain: AMVSEFLKQAWFIENEEQEYVQTVKSSKGGPGSAVSPYPTFNPSSDVAALHKAIMVKGVDEATIIDILTKRNNAQRQQIKAAYLQETGKPLDETLKKALTGHLEEVVLALLKTPAQFDADELRAAMKGLGTDEDTLIEILASRTNKEIRDINRVYREELKRDLAKDITSDTSGDFRNALLSLAKGDRSEDFGVNEDLADSDARALYEAGERRKGTDVNVFNTILTTRSYPQLRRVFQKYTKYSKHDMNKVLDLELKGDIEKCLTAIVKCATSKPAFFAEKLHQAMKGVGTRHKALIRIMVSRSEIDMNDIKAFYQKMYGISLCQAILDETKGDYEKILVALCGGN
vesicle aggregation (turbidity) ([3]; 0 up to 5 μg recombinant ANXA1, 1 mmol/L CaCl2, ~150 nm phosphatidylserine vesicles): time- and concentration-dependent vesicle aggregation
